Test results from US7101878B1 (Agouron Pharmaceuticals, Inc., priority 1998, dated 2006).

Tests used:
PAF = PAF (Homo sapiens, UniProt P25105); assay: biochemical
M2 Muscarinic = M2 Muscarinic (Homo sapiens, UniProt P08172); assay: Selectivity: M2 Muscarinic
RARγ Retinoid = RARγ Retinoid (Homo sapiens, UniProt P13631); assay: biochemical
ET-A = ET-A (Homo sapiens, UniProt P25101); assay: biochemical
CYP3A4 Cytochrome P450 = CYP3A4 Cytochrome P450 (Homo sapiens, UniProt P08684)
TXA2 = TXA2 (Homo sapiens, UniProt P21731); assay: biochemical
Sequence of TXA2 (P21731 whole entry): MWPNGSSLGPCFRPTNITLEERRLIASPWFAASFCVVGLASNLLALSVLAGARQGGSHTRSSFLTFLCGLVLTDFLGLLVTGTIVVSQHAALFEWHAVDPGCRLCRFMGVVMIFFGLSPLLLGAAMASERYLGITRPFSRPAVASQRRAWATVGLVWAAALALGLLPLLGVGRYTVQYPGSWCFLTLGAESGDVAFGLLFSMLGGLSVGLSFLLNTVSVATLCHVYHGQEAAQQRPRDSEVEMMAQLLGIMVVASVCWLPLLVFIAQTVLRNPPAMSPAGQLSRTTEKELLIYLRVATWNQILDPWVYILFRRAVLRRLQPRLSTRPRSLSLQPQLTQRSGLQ

Serotonin Transporter = Serotonin Transporter (Homo sapiens, UniProt P31645); assay: Selectivity: Serotonin Transporter
Sequence of Serotonin Transporter (P31645 whole entry): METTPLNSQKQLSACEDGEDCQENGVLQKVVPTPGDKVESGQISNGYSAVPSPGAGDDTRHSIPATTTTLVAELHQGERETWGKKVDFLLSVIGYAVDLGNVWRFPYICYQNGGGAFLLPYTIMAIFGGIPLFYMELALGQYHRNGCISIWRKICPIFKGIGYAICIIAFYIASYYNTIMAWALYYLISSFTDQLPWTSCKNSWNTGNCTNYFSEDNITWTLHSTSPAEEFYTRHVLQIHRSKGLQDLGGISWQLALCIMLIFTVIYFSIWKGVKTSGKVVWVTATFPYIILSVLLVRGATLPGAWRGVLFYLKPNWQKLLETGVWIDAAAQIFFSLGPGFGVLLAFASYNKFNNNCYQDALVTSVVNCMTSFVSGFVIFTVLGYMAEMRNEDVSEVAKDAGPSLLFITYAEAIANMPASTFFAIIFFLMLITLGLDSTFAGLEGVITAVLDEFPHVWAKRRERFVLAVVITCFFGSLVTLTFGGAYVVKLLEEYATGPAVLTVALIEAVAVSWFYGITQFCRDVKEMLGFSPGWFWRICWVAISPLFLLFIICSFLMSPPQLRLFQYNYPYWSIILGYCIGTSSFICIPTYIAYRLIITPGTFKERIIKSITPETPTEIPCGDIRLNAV

CCKA = CCKA (Homo sapiens, UniProt P32238); assay: biochemical
Sequence of CCKA (P32238 whole entry): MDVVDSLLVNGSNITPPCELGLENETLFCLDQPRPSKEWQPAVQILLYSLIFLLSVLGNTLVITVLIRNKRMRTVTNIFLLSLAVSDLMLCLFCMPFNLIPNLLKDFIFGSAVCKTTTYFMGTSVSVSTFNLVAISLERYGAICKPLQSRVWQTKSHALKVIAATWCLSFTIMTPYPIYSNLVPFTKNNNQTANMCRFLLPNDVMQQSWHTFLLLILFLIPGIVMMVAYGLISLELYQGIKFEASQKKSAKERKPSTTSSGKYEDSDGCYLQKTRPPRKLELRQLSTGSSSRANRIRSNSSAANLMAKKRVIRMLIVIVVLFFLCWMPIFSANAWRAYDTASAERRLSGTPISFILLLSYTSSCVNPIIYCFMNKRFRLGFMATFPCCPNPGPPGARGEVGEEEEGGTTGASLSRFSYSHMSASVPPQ

LTB4 = LTB4 (Homo sapiens, UniProt Q15722); assay: biochemical
Sequence of LTB4 (Q15722 whole entry): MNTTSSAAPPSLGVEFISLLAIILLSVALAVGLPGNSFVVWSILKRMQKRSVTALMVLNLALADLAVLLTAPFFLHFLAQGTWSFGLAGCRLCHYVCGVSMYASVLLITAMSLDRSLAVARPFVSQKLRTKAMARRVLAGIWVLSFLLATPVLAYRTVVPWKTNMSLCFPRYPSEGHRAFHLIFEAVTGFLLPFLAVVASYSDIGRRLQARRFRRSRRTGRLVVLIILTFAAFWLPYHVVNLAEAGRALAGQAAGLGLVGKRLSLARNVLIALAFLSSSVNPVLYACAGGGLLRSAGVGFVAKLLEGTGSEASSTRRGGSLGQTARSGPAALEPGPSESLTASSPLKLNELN

[1] = system: testosterone levels in intact male rats; assay: Intact male rat, testosterone suppression; format: in vivo
Source text: Testosterone is a hormone regulated by the hypothalamic-pituitary-gonadal axis. GnRH is secreted in pulses from the hypothalamus and stimulates the anterior pituitary gland to release gonadotropic hormones LH and FSH. Testosterone is produced when the testes are stimulated by LH. The quantity of testosterone secreted increases approximately in direct proportion to the amount of LH available (Guyton, 1986).
Male Sprague-Dawley (250-275 g) rats were single-housed and allowed to acclimate for 1 week prior to study. On study day animals were dosed with vehicle or test compound by various routes of administration, including ip, sc, or po. Blood samples were obtained via cardiac puncture under halothane anesthesia from individual animals at predetermined time points post treatment. Blood samples were drawn into heparin containing tubes. Blood was centrifuged immediately, plasma collected and stored in −20° freezer until assayed. Plasma samples were analyzed using DSL-4000 ACTIVE Testosterone coated-tube raduioimmunoassay kit from Diagnostic Systems Laboratories, Inc.
Male Sprague-Dawley (250-275 g) rats were single-housed and allowed to acclimate for 1 week prior to study. We developed a technique to allow for repeated sampling from the jugular vein by using microrenathane (MRE) catheters implanted 7 days prior to study. Details of the surgical procedure have been described previously {Harms and Ojeda, 1974}. On study day, animals were allowed to acclimate to the procedure room while residing in their home cage. Basal blood samples were drawn from all animals. Immediately following basal sampling, vehicle or test compounds were administered by various routes. The routes of administration employed were intravenous (iv), intramuscular (im), and oral (po). Blood samples were drawn into heparin containing tubes at multiple time points post treatment. Blood was centrifuged immediately, plasma collected and stored in −20° freezer until assayed. Plasma samples were analyzed using DSL-4000 ACTIVE Testosterone coated-tube raduioimmunoassay kit from Diagnostic Systems Laboratories, Inc.
Male Sprague-Dawley (250-275 g) rats were double-housed and allowed to acclimate for 1 week prior to study. Daily vehicle treatments were administered either, im, sc, or po between 8:00 and 9:00 am for seven days. On day 8 between 8:00 and 9:00 am, blood samples were drawn via cardiac puncture under halothane anesthesia. The procedure was complete in 45-60 seconds. Over the next 7 days one groups of animals continued to receive vehicle treatments while another group of animals received no treatment. Samples were collected as described above following the 7th day of this treatment regimen. Testosterone levels were not different between vehicle treated animals and untreated animals.
Daily im dosing of Compound 134 (100 mg/kg) or vehicle was performed between 8:00 and 9:00 am for seven days. Samples were collected as described above following the 7th day of treatment.
All blood samples were collected in heparin containing tubes. Blood was centrifuged immediately, plasma collected and stored in −20° freezer until assayed the next day. Plasma samples were analyzed using DSL-4000 ACTIVE Testosterone coated-tube raduioimmunoassay kit from Diagnostic Systems Laboratories, Inc.

rat GnRH receptor = target: T1, rat GnRH receptor (Rattus norvegicus, UniProt P30969); assay: Total inositol phosphates measurement, GGH3 cells; format: cell-based; settings: PI (inositol phosphates)
T1 sequence (P30969 1-327): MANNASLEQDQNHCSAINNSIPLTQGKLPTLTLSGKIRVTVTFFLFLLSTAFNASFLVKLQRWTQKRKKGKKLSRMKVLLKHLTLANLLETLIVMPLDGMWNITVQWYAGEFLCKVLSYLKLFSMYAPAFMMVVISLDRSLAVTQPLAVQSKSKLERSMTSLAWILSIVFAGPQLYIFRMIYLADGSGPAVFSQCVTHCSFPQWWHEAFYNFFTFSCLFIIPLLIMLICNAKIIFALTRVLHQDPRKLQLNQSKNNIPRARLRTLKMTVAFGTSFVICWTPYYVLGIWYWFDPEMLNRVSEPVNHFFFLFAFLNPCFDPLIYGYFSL
Protocol: In another test, accumulation of total inositol phosphates may be measured by formic acid extraction from cells, followed by separation of the phosphates on Dowex columns. Cells are split using trypsin into two 12-well plates and pre-labeled with ^3H-myoinositol ([…]-2 mCi per mL) for 16-18 hours in inositol-free medium. The medium is then aspirated and the cells rinsed with either 1×HBSS, 20 mM HEPES (pH 7.5), or serum-free DMEM, 1×HBSS, 20 mM HEPES (pH 7.5) containing agonist, and 20 mM LiCl is then added and the cells are incubated for the desired time. The medium is aspirated and the reaction stopped by addition of ice-cold 10 mM formic acid, which also serves to extract cellular lipids. […] The columns are then washed with 10 mL of […] sodium formate and 5 mM borax, and total inositol phosphates are eluted with 4.5 mL 1M ammonium formate, 0.1M formic acid.
These cells have been extensively characterized previously (Kaiser et al., 1997). These cells were grown in low glucose Dulbecco's modified Eagle's medium (DMEM) containing: 100U/mL penicillin/streptomycin, 0.6 g/L G418 and 10% beat-inactivated fetal bovine serum
This cell line was provided by Dr. Stuart Sealfon, Mount Sinai Medical School New York, N.Y. These cells were grown in DMEM supplemented with 0.2 g/L G418 100 U/ml penicillin/streptomycin and 10% FBS. […]

Sequence of CYP3A4 Cytochrome P450 (P08684 whole entry): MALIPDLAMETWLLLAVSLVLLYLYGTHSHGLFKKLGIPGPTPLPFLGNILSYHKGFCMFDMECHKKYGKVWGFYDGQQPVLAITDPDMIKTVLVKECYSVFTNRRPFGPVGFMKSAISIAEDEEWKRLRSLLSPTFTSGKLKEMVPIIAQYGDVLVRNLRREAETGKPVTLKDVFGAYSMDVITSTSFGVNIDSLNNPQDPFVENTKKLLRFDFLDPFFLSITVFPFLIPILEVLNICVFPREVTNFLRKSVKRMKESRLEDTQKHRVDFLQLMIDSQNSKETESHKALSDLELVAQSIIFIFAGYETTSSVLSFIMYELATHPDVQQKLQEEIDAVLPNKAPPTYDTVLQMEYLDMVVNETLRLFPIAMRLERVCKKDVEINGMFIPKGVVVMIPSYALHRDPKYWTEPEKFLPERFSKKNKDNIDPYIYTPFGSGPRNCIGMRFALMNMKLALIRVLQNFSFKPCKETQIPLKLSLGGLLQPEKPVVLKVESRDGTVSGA
Sequence of M2 Muscarinic (P08172 whole entry): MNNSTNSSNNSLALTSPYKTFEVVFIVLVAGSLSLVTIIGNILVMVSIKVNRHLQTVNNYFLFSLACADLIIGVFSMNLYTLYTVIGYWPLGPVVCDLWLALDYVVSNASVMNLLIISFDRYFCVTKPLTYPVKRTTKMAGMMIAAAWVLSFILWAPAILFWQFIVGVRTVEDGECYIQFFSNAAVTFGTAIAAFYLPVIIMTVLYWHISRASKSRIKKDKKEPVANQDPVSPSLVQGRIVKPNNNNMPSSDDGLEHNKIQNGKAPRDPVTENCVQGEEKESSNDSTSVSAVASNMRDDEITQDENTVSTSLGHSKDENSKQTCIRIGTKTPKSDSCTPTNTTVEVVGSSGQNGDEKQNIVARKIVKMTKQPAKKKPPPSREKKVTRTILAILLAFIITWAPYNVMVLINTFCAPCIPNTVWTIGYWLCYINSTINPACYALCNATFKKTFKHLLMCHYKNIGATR
Sequence of ET-A (P25101 21-427): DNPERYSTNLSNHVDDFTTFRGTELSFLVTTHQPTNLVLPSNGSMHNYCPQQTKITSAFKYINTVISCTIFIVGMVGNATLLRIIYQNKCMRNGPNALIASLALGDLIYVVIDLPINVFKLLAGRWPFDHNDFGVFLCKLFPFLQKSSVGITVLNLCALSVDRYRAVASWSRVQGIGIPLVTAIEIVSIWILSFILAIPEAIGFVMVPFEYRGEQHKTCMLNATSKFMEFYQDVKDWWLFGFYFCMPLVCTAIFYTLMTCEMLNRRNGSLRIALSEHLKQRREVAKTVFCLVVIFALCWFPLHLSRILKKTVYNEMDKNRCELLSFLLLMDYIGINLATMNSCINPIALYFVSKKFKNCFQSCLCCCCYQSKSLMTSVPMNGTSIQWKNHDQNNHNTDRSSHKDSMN
Sequence of RARγ Retinoid (P13631 whole entry): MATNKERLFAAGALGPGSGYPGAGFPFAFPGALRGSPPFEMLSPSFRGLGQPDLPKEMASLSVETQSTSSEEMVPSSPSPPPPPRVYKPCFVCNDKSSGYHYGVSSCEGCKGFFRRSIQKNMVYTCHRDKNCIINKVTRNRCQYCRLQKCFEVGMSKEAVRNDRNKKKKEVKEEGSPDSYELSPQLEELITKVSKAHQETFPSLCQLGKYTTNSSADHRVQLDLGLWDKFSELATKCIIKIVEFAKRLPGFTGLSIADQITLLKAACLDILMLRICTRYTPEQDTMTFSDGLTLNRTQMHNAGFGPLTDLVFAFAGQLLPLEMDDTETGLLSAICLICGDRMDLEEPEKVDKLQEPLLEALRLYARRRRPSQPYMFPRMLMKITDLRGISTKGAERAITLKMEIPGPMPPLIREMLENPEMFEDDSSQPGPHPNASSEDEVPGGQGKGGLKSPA
Sequence of PAF (P25105 whole entry): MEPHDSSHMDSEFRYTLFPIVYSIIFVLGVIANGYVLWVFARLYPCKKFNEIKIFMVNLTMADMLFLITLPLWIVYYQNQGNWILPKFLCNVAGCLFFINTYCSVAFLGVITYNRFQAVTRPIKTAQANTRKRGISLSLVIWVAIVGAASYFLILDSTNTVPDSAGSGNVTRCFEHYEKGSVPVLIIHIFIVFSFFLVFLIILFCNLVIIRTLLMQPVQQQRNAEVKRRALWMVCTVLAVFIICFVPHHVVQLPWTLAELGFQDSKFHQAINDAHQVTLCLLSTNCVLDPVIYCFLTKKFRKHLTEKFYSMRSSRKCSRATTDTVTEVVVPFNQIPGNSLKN

Structure (SMILES): COc1cccc(OC)c1NC(=O)c1ccc(Cc2cc3c(cc2C)C(C)(C)CCC3(C)C)o1 [Compound 20]
- Ki (PAF): 3000 to 5000 nM
- Ki (M2 Muscarinic): > 1000 nM
- Ki (RARγ Retinoid): > 10000 nM
- Ki (ET-A): > 1000 nM
- IC50 (CYP3A4 Cytochrome P450): 1700 nM
- Ki (TXA2): > 1000 nM
- Ki (Serotonin Transporter): > 1000 nM
- Ki (CCKA): > 1000 nM
- Ki (LTB4): > 1000 nM

Structure (SMILES): COc1cc(OC)c(NC(=O)c2ccc(Cc3cc4c(cc3C)C(C)(C)CCC4(C)C)o2)c(OC)c1 [Compound 134]
- % Testosterone suppression ([1]; 20 mg/kg ip): 36%
- Range of Plasma Conc. ([1]; 20 mg/kg ip): 0.2 µM
- Suppression Duration ([1]; 20 mg/kg ip): 4 h
- time of % Testosterone suppression ([1]; 20 mg/kg ip): 4 h
- Range of Plasma Conc. ([1]; 20 mg/kg po, @ 1 hr): 1.1 @ 1 hr μM
- Range of Plasma Conc. ([1]; 20 mg/kg po, @ 2 hr): 0.15 @ 2 hr μM
- Range of Plasma Conc. ([1]; 20 mg/kg po, @ 4 hr): 0.17 @ 4 hr μM
- % Testosterone suppression ([1]; 50 mg/kg po): 75%
- Suppression Duration ([1]; 50 mg/kg po): 8 h
- time of % Testosterone suppression ([1]; 50 mg/kg po): 4 h
- % Testosterone suppression ([1]; 100 mg/kg im*, 7 days): 80%
- Suppression Duration ([1]; 100 mg/kg im*, 7 days): 12 h
- time of % Testosterone suppression ([1]; 100 mg/kg im*, 7 days): 12 h
- % Testosterone suppression ([1]; 100 mg/kg po): 80%
- Suppression Duration ([1]; 100 mg/kg po): 12 h
- time of % Testosterone suppression ([1]; 100 mg/kg po): 6 h
- % Testosterone suppression ([1]; 100 mg/kg sc): 60%
- Range of Plasma Conc. ([1]; 100 mg/kg sc): 0.13 µM
- Suppression Duration ([1]; 100 mg/kg sc): 24 h
- time of % Testosterone suppression ([1]; 100 mg/kg sc): 24 h
- testosterone levels ([1]; 7 days of repeated treatment, 100 mg/kg im daily, p<0.05): significantly suppressed testosterone levels
- testosterone levels ([1]; oral gavage, highest dose, 12 hour time course and 24 hour time point): suppressed testosterone throughout the course of the study

Structure (SMILES): Cc1cc2c(cc1Cc1ccc(C(=O)NCc3cccc(CNc4ccnc(NC[C@@H]5CCCO5)n4)c3)o1)C(C)(C)CCC2(C)C [Compound 136]
- % Testosterone suppression ([1]; 20 mg/kg ip): 72%
- Range of Plasma Conc. ([1]; 20 mg/kg ip): 0.4 µM
- Suppression Duration ([1]; 20 mg/kg ip): 6 h
- time of % Testosterone suppression ([1]; 20 mg/kg ip): 6 h
- % Testosterone suppression ([1]; 40 mg/kg po): 46%
- Range of Plasma Conc. ([1]; 40 mg/kg po): 0.34 µM
- Suppression Duration ([1]; 40 mg/kg po): 4 h
- time of % Testosterone suppression ([1]; 40 mg/kg po): 4 h
- testosterone levels ([1]; 6 hours post ip injection, vs vehicle, p<0.05): suppressed testosterone levels
- Kb (rat GnRH receptor): 6.3 nM
